# According to patent US10787452B2 (Vertex Pharmaceuticals Incorporated, priority 2012, dated 2020):
# Test system: HCT116 colorectal cancer cells
# Assay: Cisplatin sensitization assay (96 h cell viability MTS);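 note: compound concentration needed to lower the Cisplatin-alone IC50 by a set fold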
# Assay type: cell-based
# Settings: 96 h MTS, compound plus Cisplatin
# Procedure, shortened: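 Cisplatin and compound are dosed at the same time, both serially diluted 2-fold from 10 μM final across a full matrix. Plates sit at 37° C in 5% CO2 for 96 h before MTS addition.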
row,SMILES,Cisplatin Sensitization Assay
1,"COCC1CN(c2ccncc2NC(=O)c2c(N)nn3cc(Cl)cnc23)CCN1C (centres unmarked) [I-N-47, 2-amino-6-chloro-N-(4-(3-(methoxymethyl)-4-methylpiperazin-1-yl)pyridin-3-yl)pyrazolo[1,5-a]pyrimidine-3-carboxamide]",++ (Compounds with a Cisplatin sensitization value >0.02 μM but <0.2 μM are marked with “++.”)
2,"Cc1nccnc1-c1ccncc1NC(=O)c1c(N)nn2cc(F)cnc12 [I-C-62, 2-amino-6-fluoro-N-(4-(3-methylpyrazin-2-yl)pyridin-3-yl)pyrazolo[1,5-a]pyrimidine-3-carboxamide]",++ (Compounds with a Cisplatin sensitization value >0.02 μM but <0.2 μM are marked with “++.”)
3,"Nc1nn2cc(F)cnc2c1C(=O)Nc1cncc(F)c1N1CCC(C(=O)N2CC[C@H](N3CCCC3)C2)CC1 [I-G-58, (S)—N-(4-(4-([1,3′-bipyrrolidine]-1′-carbonyl)piperidin-1-yl)-5-fluoropyridin-3-yl)-2-amino-6-fluoropyrazolo[1,5-a]pyrimidine-3-carboxamide]",+++ (Compounds with a Cisplatin sensitization value of <0.02 μM are marked with “+++.”)
4,"COc1ccncc1NC(=O)c1c(N)nn2cc(C(C)C#N)cnc12 (centres unmarked) [I-O-21, 2-amino-6-(1-cyanoethyl)-N-(4-methoxypyridin-3-yl)pyrazolo[1,5-a]pyrimidine-3-carboxamide]",++ (Compounds with a Cisplatin sensitization value >0.02 μM but <0.2 μM are marked with “++.”)
5,"Nc1nn2cc(F)cnc2c1C(=O)Nc1cncc(F)c1N1CCN(C(=O)C2CNC2)CC1 [I-N-168, 2-amino-N-(4-(4-(azetidine-3-carbonyl)piperazin-1-yl)-5-fluoropyridin-3-yl)-6-fluoropyrazolo[1,5-a]pyrimidine-3-carboxamide]",+ (Compounds with a Cisplatin sensitization value >0.2 μM but <5 μM are marked with “+.”)
6,"Nc1nn2cc(F)cnc2c1C(=O)Nc1cncc(F)c1N1CCN(C(=O)C2CNCCO2)CC1 (centres unmarked) [I-N-172, 2-amino-6-fluoro-N-(5-fluoro-4-(4-(morpholine-2-carbonyl)piperazin-1-yl)pyridin-3-yl)pyrazolo[1,5-a]pyrimidine-3-carboxamide]",+++ (Compounds with a Cisplatin sensitization value of <0.02 μM are marked with “+++.”)
7,"COCCN(C)C(=O)C1CCN(c2c(F)cncc2NC(=O)c2c(N)nn3cc(F)cnc23)CC1 [I-G-40, 2-amino-6-fluoro-N-(5-fluoro-4-(4-((2-methoxyethyl)(methyl)carbamoyl)piperidin-1-yl)pyridin-3-yl)pyrazolo[1,5-a]pyrimidine-3-carboxamide]",+++ (Compounds with a Cisplatin sensitization value of <0.02 μM are marked with “+++.”)
8,"CN1CCC(Oc2ccncc2NC(=O)c2c(N)nn3cc(CC#N)cnc23)CC1 [I-O-23, 2-amino-6-(cyanomethyl)-N-(4-((1-methylpiperidin-4-yl)oxy)pyridin-3-yl)pyrazolo[1,5-a]pyrimidine-3-carboxamide]",+++ (Compounds with a Cisplatin sensitization value of <0.02 μM are marked with “+++.”)
9,"CN1CCOC2(CCN(c3c(F)cncc3NC(=O)c3c(N)nn4cc(F)cnc34)CC2)C1 [I-N-272, 2-amino-6-fluoro-N-(5-fluoro-4-(4-methyl-1-oxa-4,9-diazaspiro[5.5]undecan-9-yl)pyridin-3-yl)pyrazolo[1,5-a]pyrimidine-3-carboxamide]",+++ (Compounds with a Cisplatin sensitization value of <0.02 μM are marked with “+++.”)
10,"Nc1nn2cc(Cl)cnc2c1C(=O)Nc1cnccc1N1CCC(N2CC[S+]([O-])CC2)CC1 [I-N-100, 2-amino-6-chloro-N-(4-(4-(1-oxidothiomorpholino)piperidin-1-yl)pyridin-3-yl)pyrazolo[1,5-a]pyrimidine-3-carboxamide]",++ (Compounds with a Cisplatin sensitization value >0.02 μM but <0.2 μM are marked with “++.”)
11,"Nc1nn2cc(F)cnc2c1C(=O)Nc1cncc(F)c1N1CCC(C(=O)N2CC3CCC(C2)N3)CC1 [I-G-44, N-(4-(4-(3,8-diazabicyclo[3.2.1]octane-3-carbonyl)piperidin-1-yl)-5-fluoropyridin-3-yl)-2-amino-6-fluoropyrazolo[1,5-a]pyrimidine-3-carboxamide]",+++ (Compounds with a Cisplatin sensitization value of <0.02 μM are marked with “+++.”)
12,"Cc1nc(N2CCN(C)CC2)ccc1-c1ccncc1NC(=O)c1c(N)nn2cc(F)cnc12 [I-C-40, 2-amino-6-fluoro-N-(2-methyl-6-(4-methylpiperazin-1-yl)-[3,4′-bipyridin]-3′-yl)pyrazolo[1,5-a]pyrimidine-3-carboxamide]",+++ (Compounds with a Cisplatin sensitization value of <0.02 μM are marked with “+++.”)
13,"Cc1cccnc1-c1ccncc1NC(=O)c1c(N)nn2cc(F)cnc12 [I-C-36, 2-amino-6-fluoro-N-(3-methyl-[2,4′-bipyridin]-3′-yl)pyrazolo[1,5-a]pyrimidine-3-carboxamide]",+++ (Compounds with a Cisplatin sensitization value of <0.02 μM are marked with “+++.”)
14,"Nc1nn2cc(F)cnc2c1C(=O)Nc1cnccc1N1CCN2[C@@H](CCS2(=O)=O)C1 [I-N-247, (S)-2-amino-N-(4-(1,1-dioxidotetrahydro-2H-isothiazolo[2,3-a]pyrazin-5(3H)-yl)pyridin-3-yl)-6-fluoropyrazolo[1,5-a]pyrimidine-3-carboxamide]",+++ (Compounds with a Cisplatin sensitization value of <0.02 μM are marked with “+++.”)
15,CN1CCN(C(=O)[C@H]2CC[C@@H](Oc3ccncc3NC(=O)c3c(N)nn4cc(F)cnc34)CC2)CC1 [I-O-19],+++ (Compounds with a Cisplatin sensitization value of <0.02 μM are marked with “+++.”)
16,"CO[C@H]1CCN(C(=O)C2CCN(c3ccncc3NC(=O)c3c(N)nn4cc(F)cnc34)CC2)C1 [I-G-94, (S)-2-amino-6-fluoro-N-(4-(4-(3-methoxypyrrolidine-1-carbonyl)piperidin-1-yl)pyridin-3-yl)pyrazolo[1,5-a]pyrimidine-3-carboxamide]",+++ (Compounds with a Cisplatin sensitization value of <0.02 μM are marked with “+++.”)
17,"Cc1cncc(NC(=O)c2c(N)nn3cc(F)cnc23)c1N1CCC(C(=O)N2CCNCC2)CC1 [I-G-56, 2-amino-6-fluoro-N-(5-methyl-4-(4-(piperazine-1-carbonyl)piperidin-1-yl)pyridin-3-yl)pyrazolo[1,5-a]pyrimidine-3-carboxamide]",+++ (Compounds with a Cisplatin sensitization value of <0.02 μM are marked with “+++.”)
18,"Nc1nn2cc(Cl)cnc2c1C(=O)Nc1cncc(F)c1N1CCN(C2COC2)CC1 [I-N-117, 2-amino-6-chloro-N-(5-fluoro-4-(4-(oxetan-3-yl)piperazin-1-yl)pyridin-3-yl)pyrazolo[1,5-a]pyrimidine-3-carboxamide]",+++ (Compounds with a Cisplatin sensitization value of <0.02 μM are marked with “+++.”)
19,"Nc1nn2cc(F)cnc2c1C(=O)Nc1cnccc1N1CCC(C(=O)N2CCOCC2)CC1 [I-G-85, 2-amino-6-fluoro-N-(4-(4-(morpholine-4-carbonyl)piperidin-1-yl)pyridin-3-yl)pyrazolo[1,5-a]pyrimidine-3-carboxamide]",+++ (Compounds with a Cisplatin sensitization value of <0.02 μM are marked with “+++.”)
20,"C[C@H]1CN(C2COC2)CCN1c1ccncc1NC(=O)c1c(N)nn2cc(F)cnc12 [I-N-24, (S)-2-amino-6-fluoro-N-(4-(2-methyl-4-(oxetan-3-yl)piperazin-1-yl)pyridin-3-yl)pyrazolo[1,5-a]pyrimidine-3-carboxamide]",+++ (Compounds with a Cisplatin sensitization value of <0.02 μM are marked with “+++.”)
21,"CN(C)C1CCN(C2CCN(c3ccncc3NC(=O)c3c(N)nn4cc(Cl)cnc34)CC2)C1 (centres unmarked) [I-N-106, 2-amino-6-chloro-N-(4-(4-(3-(dimethylamino)pyrrolidin-1-yl)piperidin-1-yl)pyridin-3-yl)pyrazolo[1,5-a]pyrimidine-3-carboxamide]",+++ (Compounds with a Cisplatin sensitization value of <0.02 μM are marked with “+++.”)
22,"CC(C)N1CCN(c2ccncc2NC(=O)c2c(N)nn3cc(Cl)cnc23)CC1 [I-N-39, 2-amino-6-chloro-N-(4-(4-isopropylpiperazin-1-yl)pyridin-3-yl)pyrazolo[1,5-a]pyrimidine-3-carboxamide]",++ (Compounds with a Cisplatin sensitization value >0.02 μM but <0.2 μM are marked with “++.”)
23,"Nc1nn2cc(F)cnc2c1C(=O)Nc1cncc(F)c1N1CCN(C(=O)CN2CCCC2)CC1 [I-N-187, 2-amino-6-fluoro-N-(5-fluoro-4-(4-(2-(pyrrolidin-1-yl)acetyl)piperazin-1-yl)pyridin-3-yl)pyrazolo[1,5-a]pyrimidine-3-carboxamide]",+++ (Compounds with a Cisplatin sensitization value of <0.02 μM are marked with “+++.”)
24,"Nc1nn2cc(F)cnc2c1C(=O)Nc1cnccc1N1CCC(C(=O)N2CC(F)C2)CC1 [I-G-82, 2-amino-6-fluoro-N-(4-(4-(3-fluoroazetidine-1-carbonyl)piperidin-1-yl)pyridin-3-yl)pyrazolo[1,5-a]pyrimidine-3-carboxamide]",+++ (Compounds with a Cisplatin sensitization value of <0.02 μM are marked with “+++.”)
25,"Nc1nn2cc(F)cnc2c1C(=O)Nc1cncc(F)c1N1CCN(CC(=O)N2CCC2)CC1 [I-N-228, 2-amino-N-(4-(4-(2-(azetidin-1-yl)-2-oxoethyl)piperazin-1-yl)-5-fluoropyridin-3-yl)-6-fluoropyrazolo[1,5-a]pyrimidine-3-carboxamide]",+++ (Compounds with a Cisplatin sensitization value of <0.02 μM are marked with “+++.”)
26,"Nc1nn2cc(F)cnc2c1C(=O)Nc1cncc(F)c1N1CCN(S(=O)(=O)C2CC2)CC1 [I-N-159, 2-amino-N-(4-(4-(cyclopropylsulfonyl)piperazin-1-yl)-5-fluoropyridin-3-yl)-6-fluoropyrazolo[1,5-a]pyrimidine-3-carboxamide]",+++ (Compounds with a Cisplatin sensitization value of <0.02 μM are marked with “+++.”)
